Measured values reported in US20240059671A1, “TYROSINE KINASE 2 (TYK2) DEGRADATION COMPOUNDS AND METHODS OF USE” (CULLGEN (SHANGHAI), INC., priority 2020, published 2024).
Entries after “also recorded” stand apart in the source; their conditions may differ.

Biological target: TYK2 (Homo sapiens, UniProt P29597)
Test: TYK2 protein degradation in NOMO-1 cells by immunoblotting
Type: cell-based
Design: endogenous in cells
Conditions: for TYK2 Degradation (NOMO-1, 10 nM) / TYK2 Degradation (NOMO-1, 100 nM): NOMO-1 cells
Procedure: NOMO-1 cells were treated with CPD-155, CPD-157, and CPD-158 at 0.1, 1, 10, 100 and 1000 nM concentrations for 16 hours. […] Data shown that CPD-155, CPD-157, and CPD-158 are very potent at the reduction protein levels of TYK2.
MOLT-4 or NOMO-1 cells were cultured at 37° C. with 5% CO2 in RPMI 1640 Medium supplemented with 10% fetal bovine serum. Cells were authenticated using the short tandem repeat (STR) assays. Mycoplasma test results were negative.
Cultured cells were washed with cold PBS once and lysed in cold RIPA buffer supplemented with protease inhibitors and phosphatase inhibitors (Beyotime Biotechnology). The solutions were then incubated at 4° C. for 30 minutes with gentle agitation to fully lyse cells. Cell lysates were centrifuged at 13,000 rpm for 10 minutes at 4° C. and pellets were discarded. Total protein concentrations in the lysates were determined by BCA assays (Beyotime Biotechnology). Cell lysates were mixed with Laemmli loading buffer to 1× and heated at 99° C. for 5 min. Proteins were resolved on SDS-PAGE and visualized by chemiluminescence. Images were taken by a ChemiDoc MP Imaging system (Bio-Rad). Protein bands were quantitated using the accompanied software provided by Bio-Rad.

TYK2, sequence (P29597 whole entry): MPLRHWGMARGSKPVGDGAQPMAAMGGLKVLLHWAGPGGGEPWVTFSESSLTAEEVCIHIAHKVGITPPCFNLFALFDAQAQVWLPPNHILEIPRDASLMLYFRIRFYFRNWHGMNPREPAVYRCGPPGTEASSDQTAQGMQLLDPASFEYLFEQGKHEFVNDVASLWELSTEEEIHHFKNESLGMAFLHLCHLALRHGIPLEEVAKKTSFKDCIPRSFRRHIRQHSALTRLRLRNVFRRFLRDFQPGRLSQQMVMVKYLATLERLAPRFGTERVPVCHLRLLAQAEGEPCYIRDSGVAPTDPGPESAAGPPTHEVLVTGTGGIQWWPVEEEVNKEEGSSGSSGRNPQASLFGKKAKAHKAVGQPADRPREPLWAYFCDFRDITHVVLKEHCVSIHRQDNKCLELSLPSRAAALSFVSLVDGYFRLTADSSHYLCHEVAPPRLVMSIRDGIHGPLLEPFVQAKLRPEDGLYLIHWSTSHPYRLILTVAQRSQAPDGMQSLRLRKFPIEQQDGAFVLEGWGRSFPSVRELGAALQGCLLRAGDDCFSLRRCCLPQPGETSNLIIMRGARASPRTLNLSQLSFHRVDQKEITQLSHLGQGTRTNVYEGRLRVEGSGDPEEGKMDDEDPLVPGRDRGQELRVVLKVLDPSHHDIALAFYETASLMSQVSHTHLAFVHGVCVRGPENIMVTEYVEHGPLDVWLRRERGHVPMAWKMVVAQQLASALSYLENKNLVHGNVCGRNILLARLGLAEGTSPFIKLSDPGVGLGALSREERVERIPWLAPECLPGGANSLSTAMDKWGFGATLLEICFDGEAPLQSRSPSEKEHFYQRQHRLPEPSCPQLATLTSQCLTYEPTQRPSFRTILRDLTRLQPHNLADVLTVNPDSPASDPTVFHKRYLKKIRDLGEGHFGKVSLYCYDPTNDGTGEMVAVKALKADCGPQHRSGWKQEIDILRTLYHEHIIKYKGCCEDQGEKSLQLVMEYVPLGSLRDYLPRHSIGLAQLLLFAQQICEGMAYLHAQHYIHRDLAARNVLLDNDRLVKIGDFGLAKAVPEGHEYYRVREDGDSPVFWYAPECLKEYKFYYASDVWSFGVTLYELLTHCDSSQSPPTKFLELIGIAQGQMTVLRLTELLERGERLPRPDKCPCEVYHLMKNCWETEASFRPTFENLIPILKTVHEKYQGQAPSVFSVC

| Structure (SMILES) | TYK2 Degradation (NOMO-1, 10 nM) | TYK2 Degradation (NOMO-1, 100 nM) | Reduction of TYK2 protein levels over a dose range (FIG. 2) (NOMO-1 cells, 0.1, 1, 10, 100 and 1000 nM, 16 hours) |
| --- | --- | --- | --- |
| CNC(=O)c1nnc(Nc2ccc(N3CCN(C4CCN(C(=O)CCCCC(=O)N[C@H](C(=O)N5C[C@H](O)C[C@H]5C(=O)N[C@@H](C)c5ccc(-c6scnc6C)cc5)C(C)(C)C)CC4)CC3)cn2)cc1Nc1cccc(-c2ncn(C)n2)c1OC [CPD-147, 6-((5-(4-(1-(6-(((S)-1-((2S,4R)-4-Hydroxy-2-(((S)-1-(4-(4-methylthiazol-5-yl)phenyl)ethyl)carbamoyl)pyrrolidin-1-yl)-3,3-dimethyl-1-oxobutan-2-yl)amino)-6-oxohexanoyl)piperidin-4-yl)piperazin-1-yl)pyridin-2-yl)amino)-4-((2-methoxy-3-(1-methyl-1H-1,2,4-triazol-3-yl)phenyl)amino)-N-methylpyridazine-3-carboxamide] | B (B: <60% TYK2 degradation, and >20% TYK2 degradation) | A (A: ≥60% TYK2 degradation) |  |
| CNC(=O)c1nnc(Nc2ccc(N3CCN(C4CCN(C(=O)CCC(=O)N[C@H](C(=O)N5C[C@H](O)C[C@H]5C(=O)N[C@@H](C)c5ccc(-c6scnc6C)cc5)C(C)(C)C)CC4)CC3)cn2)cc1Nc1cccc(-c2ncn(C)n2)c1OC [CPD-145, 6-((5-(4-(1-(4-(((S)-1-((2S,4R)-4-Hydroxy-2-(((S)-1-(4-(4-methylthiazol-5-yl)phenyl)ethyl)carbamoyl)pyrrolidin-1-yl)-3,3-dimethyl-1-oxobutan-2-yl)amino)-4-oxobutanoyl)piperidin-4-yl)piperazin-1-yl)pyridin-2-yl)amino)-4-((2-methoxy-3-(1-methyl-1H-1,2,4-triazol-3-yl)phenyl)amino)-N-methylpyridazine-3-carboxamide] |  | B (B: <60% TYK2 degradation, and >20% TYK2 degradation) |  |
| CNC(=O)c1nnc(Nc2ccc(C(=O)NCCCCCCC(=O)N[C@H](C(=O)N3C[C@H](O)C[C@H]3C(=O)N[C@@H](C)c3ccc(-c4scnc4C)cc3)C(C)(C)C)cn2)cc1Nc1cccc(-c2ncn(C)n2)c1OC [CPD-142, 6-((5-((7-(((S)-1-((2S,4R)-4-Hydroxy-2-(((S)-1-(4-(4-methylthiazol-5-yl)phenyl)ethyl)carbamoyl)pyrrolidin-1-yl)-3,3-dimethyl-1-oxobutan-2-yl)amino)-7-oxoheptyl)carbamoyl)pyridin-2-yl)amino)-4-((2-methoxy-3-(1-methyl-1H-1,2,4-triazol-3-yl)phenyl)amino)-N-methylpridazine-3-carboxamide] | B (B: <60% TYK2 degradation, and >20% TYK2 degradation) | A (A: ≥60% TYK2 degradation) |  |
| CNC(=O)c1nnc(Nc2ccc(N3CCN(C(=O)CCCCCCCC(=O)N[C@H](C(=O)N4C[C@H](O)C[C@H]4C(=O)N[C@@H](C)c4ccc(-c5scnc5C)cc4)C(C)(C)C)CC3)cn2)cc1Nc1cccc(-c2ncn(C)n2)c1OC [CPD-115, 6-((5-(4-(9-(((S)-1-((2S,4R)-4-hydroxy-2-(((S)-1-(4-(4-methylthiazol-5-yl)phenyl)ethyl)carbamoyl)pyrrolidin-1-yl)-3,3-dimethyl-1-oxobutan-2-yl)amino)-9-oxononanoyl)piperazin-1-yl)pyridin-2-yl)amino)-4-((2-methoxy-3-(1-methyl-1H-1,2,4-triazol-3-yl)phenyl)amino)-N-methylpyridazine-3-carboxamide] | A (A: ≥60% TYK2 degradation) | A (A: ≥60% TYK2 degradation) |  |
| CNC(=O)c1nnc(Nc2ccc(N3CCN(C4CCN(C(=O)CCCCCCCCC(=O)N[C@H](C(=O)N5C[C@H](O)C[C@H]5C(=O)N[C@@H](C)c5ccc(-c6scnc6C)cc5)C(C)(C)C)CC4)CC3)cn2)cc1Nc1cccc(-c2ncn(C)n2)c1OC [CPD-151, 6-((5-(4-(1-(10-(((S)-1-((2S,4R)-4-hydroxy-2-(((S)-1-(4-(4-methylthiazol-5-yl)phenyl)ethyl)carbamoyl)pyrrolidin-1-yl)-3,3-dimethyl-1-oxobutan-2-yl)amino)-10-oxodecanoyl)piperidin-4-yl)piperazin-1-yl)pyridin-2-yl)amino)-4-((2-methoxy-3-(1-methyl-1H-1,2,4-triazol-3-yl)phenyl)amino)-N-methylpyridazine-3-carboxamide] | A (A: ≥60% TYK2 degradation) | A (A: ≥60% TYK2 degradation) |  |
| CNC(=O)c1nnc(Nc2ccc(N3CCN(C4CCN(C(=O)CCCC(=O)N[C@H](C(=O)N5C[C@H](O)C[C@H]5C(=O)N[C@@H](C)c5ccc(-c6scnc6C)cc5)C(C)(C)C)CC4)CC3)cn2)cc1Nc1cccc(-c2ncn(C)n2)c1OC [CPD-146, 6-((5-(4-(1-(5-(((S)-1-((2S,4R)-4-Hydroxy-2-(((S)-1-(4-(4-methylthiazol-5-yl)phenyl)ethyl)carbamoyl)pyrrolidin-1-yl)-3,3-dimethyl-1-oxobutan-2-yl)amino)-5-oxopentanoyl)piperidin-4-yl)piperazin-1-yl)pyridin-2-yl)amino)-4-((2-methoxy-3-(1-methyl-1H-1,2,4-triazol-3-yl)phenyl)amino)-N-methylpyridazine-3-carboxamide] | B (B: <60% TYK2 degradation, and >20% TYK2 degradation) | A (A: ≥60% TYK2 degradation) |  |
| CNC(=O)c1nnc(Nc2ccc(C(=O)NCCCCCCCC(=O)N[C@H](C(=O)N3C[C@H](O)C[C@H]3C(=O)N[C@@H](C)c3ccc(-c4scnc4C)cc3)C(C)(C)C)cn2)cc1Nc1cccc(-c2ncn(C)n2)c1OC [CPD-143, 6-((5-((8-(((S)-1-((2S,4R)-4-hydroxy-2-(((S)-1-(4-(4-methylthiazol-5-yl)phenyl)ethyl)carbamoyl)pyrrolidin-1-yl)-3,3-dimethyl-1-oxobutan-2-yl)amino)-8-oxooctyl)carbamoyl)pyridin-2-yl)amino)-4-((2-methoxy-3-(1-methyl-1H-1,2,4-triazol-3-yl)phenyl)amino)-N-methylpyridazine-3-carboxamide] | A (A: ≥60% TYK2 degradation) | A (A: ≥60% TYK2 degradation) |  |
| CNC(=O)c1nnc(Nc2ccc(N3CCN(C(=O)CCCCCCC(=O)N[C@H](C(=O)N4C[C@H](O)C[C@H]4C(=O)N[C@H]4CCCc5[nH]c(=O)c(C)cc54)C(C)(C)C)CC3)cn2)cc1Nc1cccc(-c2ncn(C)n2)c1OC [CDD-174, 6-((5-(4-(8-(((S)-1-((2S,4R)-4-hydroxy-2-(((S)-3-methyl-2-oxo-1,2,5,6,7,8-hexahydroquinolin-5-yl)carbamoyl)pyrrolidin-1-yl)-3,3-dimethyl-1-oxobutan-2-yl)amino)-8-oxooctanoyl)piperazin-1-yl)pyridin-2-yl)amino)-4-((2-methoxy-3-(1-methyl-1H-1,2,4-triazol-3-yl)phenyl)amino)-N-methylpyridazine-3-carboxamide] | C (C: ≤20% TYK2 degradation) | C (C: ≤20% TYK2 degradation) |  |
| CNC(=O)c1nnc(Nc2ccc(C(=O)NCCCCC(=O)N[C@H](C(=O)N3C[C@H](O)C[C@H]3C(=O)N[C@@H](C)c3ccc(-c4scnc4C)cc3)C(C)(C)C)cn2)cc1Nc1cccc(-c2ncn(C)n2)c1OC [CPD-140, 6-((5-((5-(((S)-1-((2S,4R)-4-Hydroxy-2-(((S)-1-(4-(4-methylthiazol-5-yl)phenyl)ethyl)carbamoyl)pyrrolidin-1-yl)-3,3-dimethyl-1-oxobutan-2-yl)amino)-5-oxopentyl)carbamoyl)pyridin-2-yl)amino)-4-((2-methoxy-3-(1-methyl-1H-1,2,4-triazol-3-yl)phenyl)amino)-N-methylpyridazine-3-carboxamide] | C (C: ≤20% TYK2 degradation) | A (A: ≥60% TYK2 degradation) |  |
| CNC(=O)c1nnc(Nc2ccc(C(=O)NCCCCCCCNc3cccc4c3C(=O)N(C3CCC(=O)NC3=O)C4=O)cn2)cc1Nc1cccc(-c2ncn(C)n2)c1OC (stereo not shown) [CPD-157, 6-((5-((7-((2-(2,6-dioxopiperidin-3-yl)-1,3-dioxoisoindolin-4-yl)amino)heptyl)carbamoyl)pyridin-2-yl)amino)-4-((2-methoxy-3-(1-methyl-1H-1,2,4-triazol-3-yl)phenyl)amino)-N-methylpyridazine-3-carboxamide] | A (A: ≥60% TYK2 degradation) | C (C: ≤20% TYK2 degradation) | concentration-dependently reduced the TYK2 proteins levels; also recorded: highly potent in reducing TYK2 protein levels |
| CNC(=O)c1nnc(Nc2ccc(C(=O)NCCNc3ccc4c(c3)C(=O)N(C3CCC(=O)NC3=O)C4=O)cn2)cc1Nc1cccc(-c2ncn(C)n2)c1OC (stereo not shown) [CDD-176, 6-((5-((2-((2-(2,6-dioxopiperidin-3-yl)-1,3-dioxoisoindolin-5-yl)amino)ethyl)carbamoyl)pyridin-2-yl)amino)-4-((2-methoxy-3-(1-methyl-1H-1,2,4-triazol-3-yl)phenyl)amino)-N-methylpyridazine-3-carboxamide] | C (C: ≤20% TYK2 degradation) | C (C: ≤20% TYK2 degradation) |  |
